In ChEMBL document CHEMBL2346627, “Synthesis and cytotoxicity evaluation of oleanolic acid derivatives” (Bioorg Med Chem Lett, 2013):
pIC50: −log10 of the molar value. Activity calls are given as the source filed them. The rule behind the calls is not given here.

How the values were obtained:
[1] = tested on: BGC-823; experiment: Cytotoxicity against human BGC823 cells by MTT assay; type: functional, cell-based
[2] = tested on: A549; experiment: Cytotoxicity against human A549 cells by MTT assay; type: functional, cell-based
[3] = tested on: MCF7; experiment: Cytotoxicity against human MCF7 cells by MTT assay; type: functional, cell-based
[4] = tested on: PC-3; experiment: Cytotoxicity against human PC3 cells by MTT assay; type: functional, cell-based
[5] = tested on: MCF7; experiment: Ratio of oleanolic acid IC50 to compound IC50 for human MCF7 cells; type: functional
[6] = tested on: PC-3; experiment: Ratio of oleanolic acid IC50 to compound IC50 for human PC3 cells; type: functional
[7] = tested on: PC-3; experiment: Ratio of adriamycin IC50 to compound IC50 for human PC3 cells; type: functional
[8] = tested on: HepG2; experiment: Cytotoxicity against human HepG2 cells; type: functional, cell-based

Row | Structure (SMILES) | pIC50 [1] | pIC50 [2] | pIC50 [3] | pIC50 [4] | Ratio IC50 [5] | Ratio IC50 [6] | Ratio IC50 [7] | inhibition [3] | pIC50 [8]
1 | CC1(C)CC[C@]2(C(=O)O)CC[C@]3(C)C(=CC[C@@H]4[C@@]5(C)CC[C@H](OC(=O)CCC(=O)O)C(C)(C)[C@@H]5CC[C@]43C)[C@@H]2C1 [OLEANOLIC ACID 3-O-SUCCINATE] | 5.25 | 5.18 | 4.22 | 5.15 | – | – | – | – | –
2 | CC1(C)CC[C@]2(C(=O)O)CC[C@]3(C)C(=CC[C@@H]4[C@@]5(C)CC[C@H](OC(=O)CN6CCOCC6)C(C)(C)[C@@H]5CC[C@]43C)[C@@H]2C1 | 4.61 | 5.08 | 4.83 | 5.20 | – | – | – | – | –
3 | COc1cccc2c1C(=O)c1c(O)c3c(c(O)c1C2=O)C[C@@](O)(C(=O)CO)C[C@@H]3O[C@H]1C[C@H](N)[C@H](O)[C@H](C)O1 [DOXORUBICIN] | – | – | 5.78 | – | – | – | – | – | –
4 | CC1(C)CC[C@]2(C(=O)OCC(=O)O)CC[C@]3(C)C(=CC[C@@H]4[C@@]5(C)CC[C@H](OC(=O)CCC(=O)O)C(C)(C)[C@@H]5CC[C@]43C)[C@@H]2C1 | 4.87 | 4.92 | 3.09 | 5.11 | – | – | – | – | –
5 | CC1(C)CC[C@]2(C(=O)O)CC[C@]3(C)C(=CC[C@@H]4[C@@]5(C)CC[C@H](OC(=O)CCN6CCCC6)C(C)(C)[C@@H]5CC[C@]43C)[C@@H]2C1 | 4.57 | 5.21 | 5.70 | 5.26 | 17 | – | – | – | –
6 | CC1(C)CC[C@]2(C(=O)O)CC[C@]3(C)C(=CC[C@@H]4[C@@]5(C)CC[C@H](OC(=O)C[C@H](O)C(=O)O)C(C)(C)[C@@H]5CC[C@]43C)[C@@H]2C1 | 5.38 | 6.15 | 4.79 | 6.41 | – | 17 | 1.7 | – | –
7 | CC1(C)CC[C@]2(C(=O)O)CC[C@]3(C)C(=CC[C@@H]4[C@@]5(C)CC[C@H](OC(=O)CCN6CCOCC6)C(C)(C)[C@@H]5CC[C@]43C)[C@@H]2C1 | 4.09 | 3.14 | 3.14 | 5.20 | – | – | – | – | –
8 | CC1(C)CC[C@]2(C(=O)O)CC[C@]3(C)C(=CC[C@@H]4[C@@]5(C)CC[C@H](O)C(C)(C)[C@@H]5CC[C@]43C)[C@@H]2C1 [OLEANOLIC_ACID] | 5.59 | 6.41 | 4.45 | 5.19 | – | – | – | – | –
9 | CC1(C)CC[C@]2(C(=O)O)CC[C@]3(C)C(=CC[C@@H]4[C@@]5(C)CC[C@H](OC(=O)CCn6ccnc6)C(C)(C)[C@@H]5CC[C@]43C)[C@@H]2C1 | 4.12 | 6.66 | – | 4.30 | – | – | – | inactive | –
10 | CC1(C)CC[C@]2(C(=O)OCC(=O)O)CC[C@]3(C)C(=CC[C@@H]4[C@@]5(C)CC[C@H](OC(=O)CCC(=O)NCCS(=O)(=O)O)C(C)(C)[C@@H]5CC[C@]43C)[C@@H]2C1 | 4.07 | 3.57 | 4.29 | 4.98 | – | – | – | – | –
11 | COC(=O)[C@]12CCC(C)(C)C[C@@H]1C1=CC[C@@H]3[C@@]4(C)CC[C@H](N)C(C)(C)[C@@H]4CC[C@@]3(C)[C@]1(C)CC2 | – | – | – | – | – | – | – | – | 5.40
12 | CC1(C)CC[C@]2(C(=O)O)CC[C@]3(C)C(=CC[C@@H]4[C@@]5(C)CC[C@H](OC(=O)CCC(=O)NCCS(=O)(=O)O)C(C)(C)[C@@H]5CC[C@]43C)[C@@H]2C1 | 5.14 | 5.88 | 5.28 | 6.08 | – | 17 | – | – | –
13 | CC1(C)CC[C@]2(C(=O)O)CC[C@]3(C)C(=CC[C@@H]4[C@@]5(C)CC[C@H](OC(=O)CN6CCCC6)C(C)(C)[C@@H]5CC[C@]43C)[C@@H]2C1 | 4.06 | 5.07 | 4.89 | 4.55 | – | – | – | – | –
14 | CC1(C)CC[C@]2(C(=O)O)CC[C@]3(C)C(=CC[C@@H]4[C@@]5(C)CC[C@H](OC(=O)Cn6ccnc6)C(C)(C)[C@@H]5CC[C@]43C)[C@@H]2C1 | 4.79 | 4.77 | 3.05 | 4.24 | – | – | – | – | –
15 | CC1(C)CC[C@]2(C(=O)OCC(=O)O)CC[C@]3(C)C(=CC[C@@H]4[C@@]5(C)CC[C@H](OC(=O)C[C@H](O)C(=O)O)C(C)(C)[C@@H]5CC[C@]43C)[C@@H]2C1 | 5.03 | 4.71 | 4.45 | 5.09 | – | – | – | – | –
